In publication PMC8539145, “Function and Characterization Analysis of BodoOBP8 from Bradysia odoriphaga (Diptera: Sciaridae) in the Recognition of Plant Volatiles and Sex Pheromones” (Insects, 2021):
Several values for one entry are separate records, joined by “and”; a condition that tells them apart may be missing. Equal values may be shown once. Read-outs that look alike come from different tables or passages of the source.

Molecular target: BodoOBP8 (Bradysia odoriphaga, UniProt A0A2S0X9G3)
Experiment: Fluorescence competitive binding assay (1-NPN probe) with recombinant BodoOBP8
Description: For the binding assays, all test ligands (Table S1) were dissolved in methanol, and N-phenyl-1-naphthylamine (1-NPN) was used as a fluorescent probe.

[1] = Ki, recombinant BodoOBP8, calculated from IC50 of 1-NPN displacement
[2] = recombinant BodoOBP8, calculated from IC50 of 1-NPN displacement, read-out: Ki
[3] = recombinant BodoOBP8, displacement of 1-NPN, read-out: IC50
[4] = pH 7.4, Figure 3B, read-out: Ki

BodoOBP8, sequence (A0A2S0X9G3 entry or part of it): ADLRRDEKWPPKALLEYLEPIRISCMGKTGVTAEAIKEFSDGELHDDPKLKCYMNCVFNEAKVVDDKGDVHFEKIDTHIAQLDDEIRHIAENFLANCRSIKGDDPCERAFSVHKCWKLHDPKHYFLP

SMILES | Ki [2] | IC50 [3] [µM] | further results
COC(=O)Cc1ccccc1 [Methyl phenylacetate] | – | – | IC50: > 50 µM; Ki [1]: > 50 µM
C=C1CC/C=C(/C)CC[C@@H]2[C@@H]1CC2(C)C [ß-caryophyllene] | > 50 µM | > 50 | –
CC(=O)/C=C/C1=C(C)CCCC1(C)C [ß-Ionone] | > 50 µM | > 50 | –
CCCCC=O [Valeric aldehyde] | > 50 µM | > 50 | –
CCCCCCCCCCCCCC [Tetradecane] | > 50 µM | > 50 | –
CC(=O)c1ccccc1 [Acetophenone] | > 50 µM | > 50 | –
CCCCCCCCCC=O [Decanal] | > 50 µM | > 50 | –
C=CC(C)=CCC=C(C)C [Ocimene] | > 50 µM | > 50 | –
CCCCCCCCC [Nonane] | > 50 µM | > 50 | –
C/C1=C\CC/C(C)=C/CC(C)(C)/C=C/C1 [α-Humulene] | > 50 µM | > 50 | –
C=CCSSC [Methyl allyl disulfide] | – | 8 | Ki [4]: 6.73 µM
CCCCCCCCCCCCCCCC [Hexadecane] | > 50 µM | > 50 | –
CCCCOC(=O)CCC(C)=O [Butyl levulinate] | > 50 µM | > 50 | –
CCCCCCCCCCCC [Dodecane] | > 50 µM | > 50 | –
CCCCCCCCCCCC=O [Dodecyl aldehyde] | > 50 µM | > 50 | –
CCCCCCC=O [Heptanal] | > 50 µM | > 50 | –

SMILES | Ki [2] | IC50 [3] [µM] | further results
c1ccc(Nc2cccc3ccccc23)cc1 [1-NPN, N-phenyl-1-naphthylamine, reference compound] | – | – | Kd: 2.21 µM
CCCCC(C)=O [2-Hexanone] | – | – | IC50: > 50 µM; Ki [1]: > 50 µM
O=Cc1ccccc1 [Benzaldehyde] | – | – | IC50: > 50 µM; Ki [1]: > 50 µM
C=C(C)[C@H]1CC=C(C)CC1 [(R)-(+)-Limonene] | > 50 µM | > 50 | –
CC12CCC(CC1)C(C)(C)O2 [1,8-Cineole] | > 50 µM | > 50 | –
C=CC(C)(O)CCC=C(C)C (stereo not drawn) [Linalool] | – | – | IC50: > 50 µM; Ki [1]: > 50 µM
Cc1ccc(C(C)C)cc1O [Carvacrol] | – | – | IC50: > 50 µM; Ki [1]: > 50 µM
COC(=O)c1ccccc1O [Methyl salicylate] | – | – | IC50: > 50 µM; Ki [1]: > 50 µM
C=CCSSCC=C [Diallyl disulfide] | – | – | IC50: 10 µM; Ki (Ki, pH 7.4, Figure 3B): 4.04 µM; Ki [1]: 6.73 µM; Ki (recombinant BodoOBP8, calculated from IC50 of 1-NPN displacement): < 10 µM
CC(C)=CCCC(C)CCO (stereo not drawn) [Citronellol] | > 50 µM | > 50 | –
CC/C=C\CCO [cis-3-Hexen-1-ol] | – | – | IC50: > 50 µM; Ki [1]: > 50 µM
CCCCCCCCCCCCCCCCC [n-Heptadecane] | 4.04 µM and < 10 µM | 6 | Ki [4]: 4.04 µM
c1ccc2[nH]ccc2c1 [(H-11)Indole, Indole] | – | – | IC50: > 50 µM; Ki [1]: > 50 µM
CCCCCCCCC=O [Nonanal] | > 50 µM | > 50 | –
CCCCCCCC=O [Octanal] | > 50 µM | > 50 | –
C=C1CCC2CC1C2(C)C (stereo not drawn) [ß-pinene] | > 50 µM | > 50 | –
